Reference: patent publication EP0760376A1, “PEPTIDES INHIBITING PHOSPHOLIPASE C” (Kyowa Hakko Kogyo Co., Ltd., priority 1995, dated 1996)
Converted amounts (≈) assume the structure as drawn. Square brackets hold non-standard residues; d marks the D form. Peptide text beside a SMILES is read from it. * marks the point of attachment. Stearoyl = CCCCCCCCCCCCCCCCCC(=O)*; 12Ado = NCCCCCCCCCCCC(=O)O; Aoc = NCCCCCCCC(=O)O; Ahp = NCCCCCCC(=O)O; Ahx = NCCCCCC(=O)O; Ava = NCCCCC(=O)O; GABA = NCCCC(=O)O

Key:
KMS-4 cells = experiment: Cell growth-inhibiting activity (BrdU incorporation, cell growth detection kit); format: cell-based; conditions: culturing with peptide for 17 hours
Description: The cell growth-inhibiting activity was determined using a cell growth detection kit (Amersham) in the following manner. KMS-4 cells [M. Nanba et al, International Journal of Cancer, 32, 697 (1983)] were suspended in DMEM medium (Nissui Pharmaceutical Co., Ltd.) containing 10% fetal calf serum at a density of 1-2 x 10^4 cells/ml, and 1 ml of the cell suspension was put into each well of a 24-well plate (Corning Inc.). The cells were cultured in a CO2 incubator (37°C, 5% CO2) for 2 days. Then, the medium was replaced with a fresh DMEM medium containing 10% fetal calf serum, and the test peptide was added thereto, followed by culturing for 17 hours. The medium was replaced with a serum-free DMEM medium, and 0.5 ml of a solution prepared by diluting labeled reagent 5-bromo-2'-deoxyuridine (BrdU) and 5-fluoro-2'-deoxyuridine (FdU) (10:1) 1000-fold with the same medium was added to each well, followed by culturing for 2 hours. Then the medium was removed, and the cells were immobilized with an acetic acid/ethanol solution. The immobilized cells were stained according to the method for the cell growth detection kit of Amersham, and then further stained with a 1% Giemsa solution (Merck & Co., Inc.). The number of cells which incorporated BrdU and the total number of cells within one field of vision of a microscope (approximately 200 cells) were determined, and the proportion (%) of stained cells per field of vision was calculated. The above procedure was repeated 10 times, and the average value thereof was defined as the cell growth activity (%). The cell growth-inhibiting activity was calculated in the following manner. That is, the cell growth inhibition rate was calculated according to the following equation: X (%) = (1-B/A) x 100 [formula] where A is the growth activity when no peptide was added, and B is the growth activity when the test peptide was added.

[1] = system: Pseudomonas aeruginosa Bin H No. 1; format: cell-based; conditions: Bin H No. 1, pH 7
Description: (§1) The antibacterial activity was determined by the agar dilution method using a medium (pH 7.0) which comprises 3 g/l Bacto-tryptone (Difco Laboratories), 1 g/l meat extract, 1 g/l glucose and 16 g/l agar.

[2] = system: Bacillus subtilis No. 10707; format: cell-based; conditions: No. 10707, pH 7
Description: as §1

PLC-γ1 = target: T1, PLC-γ1 (Bos taurus, UniProt P08487); experiment: PLC-inhibiting activity (release of [3H]inositol phosphate from [3H]PIP2); format: biochemical, bovine; conditions: 37°C, 10 minutes, pH 6.0, read-out: Inhibition rate (%)
T1 construct: A sample of PLC-γ1 was prepared from bovine thymus; from tissue; host or cells: bovine thymus
T1 sequence (P08487 1-1291): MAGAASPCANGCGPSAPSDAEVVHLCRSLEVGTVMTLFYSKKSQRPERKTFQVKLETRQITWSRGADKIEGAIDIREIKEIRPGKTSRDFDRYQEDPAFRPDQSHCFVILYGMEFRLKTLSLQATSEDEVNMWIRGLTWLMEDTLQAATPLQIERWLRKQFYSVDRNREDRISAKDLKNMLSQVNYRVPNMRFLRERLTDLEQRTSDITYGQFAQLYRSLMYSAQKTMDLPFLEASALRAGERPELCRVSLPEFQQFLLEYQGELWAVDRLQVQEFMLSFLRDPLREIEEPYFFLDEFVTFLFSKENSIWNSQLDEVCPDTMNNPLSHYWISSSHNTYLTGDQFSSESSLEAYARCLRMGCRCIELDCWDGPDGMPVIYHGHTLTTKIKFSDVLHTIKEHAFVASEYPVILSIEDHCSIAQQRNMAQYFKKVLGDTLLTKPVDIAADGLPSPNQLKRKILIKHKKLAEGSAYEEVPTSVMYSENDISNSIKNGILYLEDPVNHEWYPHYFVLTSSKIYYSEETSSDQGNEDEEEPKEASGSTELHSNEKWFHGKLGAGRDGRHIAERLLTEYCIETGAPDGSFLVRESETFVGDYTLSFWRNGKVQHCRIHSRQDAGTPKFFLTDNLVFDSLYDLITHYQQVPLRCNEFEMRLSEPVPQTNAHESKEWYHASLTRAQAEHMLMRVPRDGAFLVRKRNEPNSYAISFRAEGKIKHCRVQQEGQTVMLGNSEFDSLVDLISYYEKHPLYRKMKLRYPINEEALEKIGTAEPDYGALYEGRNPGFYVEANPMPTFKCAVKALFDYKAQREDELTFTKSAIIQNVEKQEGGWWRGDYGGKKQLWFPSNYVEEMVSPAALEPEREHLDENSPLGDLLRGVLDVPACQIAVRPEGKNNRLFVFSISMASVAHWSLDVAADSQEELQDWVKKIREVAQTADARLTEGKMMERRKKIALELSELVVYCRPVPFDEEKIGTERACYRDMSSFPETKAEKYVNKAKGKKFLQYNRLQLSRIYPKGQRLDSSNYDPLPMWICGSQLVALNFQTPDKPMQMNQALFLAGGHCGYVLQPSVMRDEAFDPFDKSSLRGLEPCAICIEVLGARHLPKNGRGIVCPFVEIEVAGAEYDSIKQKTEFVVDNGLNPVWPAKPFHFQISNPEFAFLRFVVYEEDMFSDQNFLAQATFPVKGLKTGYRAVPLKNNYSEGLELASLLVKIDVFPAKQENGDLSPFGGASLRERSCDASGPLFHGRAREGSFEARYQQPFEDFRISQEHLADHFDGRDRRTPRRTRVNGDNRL
Description: A sample of PLC-γ1 was prepared from bovine thymus according to the method described in Y. Honma et al., Biochem. J., 269, 13 (1990). A solution having the composition shown in Table 2 below was prepared on ice and was heated to 37°C to start reaction. After incubation for 10 minutes, 2 ml of a chloroform/methanol mixture (2:1, v/v) was added thereto to stop the reaction. The resulting inositol phosphate was extracted with 0.5 ml of 1 N hydrochloric acid. The extract was separated into two liquid phases by centrifugation (2000 x g, 3 minutes), and the amount of ^3H contained in the supernatant (0.7 ml) was measured with a scintillation counter. Table 2 [table] The inhibition rate (X) was calculated according to the following equation: X (%) = (A-C) / (B-C) x 100 [formula] where A is the obtained value of specific radioactivity, B is the value of specific radioactivity obtained when the same amount of water was added instead of the aqueous solution of the test peptide, and C is the value of specific radioactivity obtained when the same amount of water was added instead of the sample and the aqueous solution of the test peptide.

[3] = system: Proteus vulgaris ATCC 6897; format: cell-based; conditions: ATCC 6897, pH 7
Description: as §1

Row | SMILES | MIC (µg/ml) PA [1] | MIC (µg/ml) BS [2] | MIC (µg/ml) PV [3] | Inhibition rate (%) (KMS-4 cells; Concentration 1 µM) | also measured
1 | CSCC[C@H](NC(=O)[C@H](CCCCN)NC(=O)[C@H](CCCNC(=N)N)NC(=O)[C@H](Cc1ccc(O)cc1)NC(=O)[C@H](CC(C)C)NC(C)=O)C(=O)N[C@@H](CCCNC(=N)N)C(=O)N[C@@H](CC(C)C)C(=O)N[C@@H](CCCNC(=N)N)C(=O)N[C@@H](Cc1ccc(O)cc1)C(=O)N1CCC[C@H]1C(=O)N[C@H](C(=O)NCCCCCCCCCCCC(N)=O)C(C)C [Compound (I-7), CH3CO-Leu-Tyr-Arg-Lys-Met-Arg-Leu-Arg-Tyr-Pro-Val-NH-(CH2)11CONH2] (Ac-LYRKMRLRYPV[12Ado]-NH2) | 150 µg/mL (≈ 86.5 µM) | – | – | 39% | inhibition at 114 µM (PLC-γ1; Concentration 114 µM (aqueous solution of test peptide provided for the test)): 82%
2 | CCCCCCCCCCCCCCCCCC(=O)N[C@@H](CC(C)C)C(=O)N[C@@H](Cc1ccc(O)cc1)C(=O)N[C@@H](CCCNC(=N)N)C(=O)N[C@@H](CCCCN)C(=O)N[C@@H](CCSC)C(=O)N[C@@H](CCCNC(=N)N)C(=O)N[C@@H](CC(C)C)C(=O)N[C@@H](CCCNC(=N)N)C(=O)N[C@@H](Cc1ccc(O)cc1)C(=O)N1CCC[C@H]1C(=O)N[C@H](C(=O)NCCCCCCCCCCCC(N)=O)C(C)C [Compound (I-8), C17H35CO-Leu-Tyr-Arg-Lys-Met-Arg-Leu-Arg-Tyr-Pro-Val-NH-(CH2)11CONH2] (Stearoyl-LYRKMRLRYPV[12Ado]-NH2) | 106 µg/mL (≈ 54.1 µM) | – | – | – | inhibition at 20 µM (PLC-γ1; Concentration 20 µM (aqueous solution of test peptide provided for the test)): 76%
3 | CSCC[C@H](NC(=O)[C@H](CCCCN)NC(=O)[C@H](CCCNC(=N)N)NC(=O)[C@H](Cc1ccc(O)cc1)NC(=O)[C@H](CC(C)C)NC(C)=O)C(=O)N[C@@H](CCCNC(=N)N)C(=O)N[C@@H](CC(C)C)C(=O)N[C@@H](CCCNC(=N)N)C(=O)N[C@@H](Cc1ccc(O)cc1)C(=O)N1CCC[C@H]1C(=O)N[C@H](C(=O)NCCCC(N)=O)C(C)C [Compound (I-1), CH3CO-Leu-Tyr-Arg-Lys-Met-Arg-Leu-Arg-Tyr-Pro-Val-NH-(CH2)3CONH2] (Ac-LYRKMRLRYPV[GABA]-NH2) | 167 µg/mL (≈ 103 µM) | 167 µg/mL (≈ 103 µM) | 83 µg/mL (≈ 51.2 µM) | 10% | inhibition at 123 µM (PLC-γ1; Concentration 123 µM (aqueous solution of test peptide provided for the test)): 85%
4 | CSCC[C@H](NC(=O)[C@H](CCCCN)NC(=O)[C@H](CCCNC(=N)N)NC(=O)[C@H](Cc1ccc(O)cc1)NC(=O)[C@H](CC(C)C)NC(C)=O)C(=O)N[C@@H](CCCNC(=N)N)C(=O)N[C@@H](CC(C)C)C(=O)N[C@@H](CCCNC(=N)N)C(=O)N[C@@H](Cc1ccc(O)cc1)C(=O)N1CCC[C@H]1C(=O)N[C@H](C(=O)NCCCCC(N)=O)C(C)C [Compound (I-2), CH3CO-Leu-Tyr-Arg-Lys-Met-Arg-Leu-Arg-Tyr-Pro-Val-NH-(CH2)4CONH2] (Ac-LYRKMRLRYPV[Ava]-NH2) | 77 µg/mL (≈ 47.1 µM) | 77 µg/mL (≈ 47.1 µM) | 77 µg/mL (≈ 47.1 µM) | 68% | inhibition at 122 µM (PLC-γ1; Concentration 122 µM (aqueous solution of test peptide provided for the test)): 75%

Further lines, with some results ahead:

Row | MIC (µg/ml) PA [1] | MIC (µg/ml) BS [2] | MIC (µg/ml) PV [3] | SMILES | Inhibition rate (%) (KMS-4 cells; Concentration 1 µM) | also measured
5 | 163 µg/mL (≈ 97.2 µM) | 81 µg/mL (≈ 48.3 µM) | – | CSCC[C@H](NC(=O)[C@H](CCCCN)NC(=O)[C@H](CCCNC(=N)N)NC(=O)[C@H](Cc1ccc(O)cc1)NC(=O)[C@H](CC(C)C)NC(C)=O)C(=O)N[C@@H](CCCNC(=N)N)C(=O)N[C@@H](CC(C)C)C(=O)N[C@@H](CCCNC(=N)N)C(=O)N[C@@H](Cc1ccc(O)cc1)C(=O)N1CCC[C@H]1C(=O)N[C@H](C(=O)NCCCCCCCC(N)=O)C(C)C [Compound (I-5), CH3CO-Leu-Tyr-Arg-Lys-Met-Arg-Leu-Arg-Tyr-Pro-Val-NH-(CH2)7CONH2] (Ac-LYRKMRLRYPV[Aoc]-NH2) | 70% | inhibition at 119 µM (PLC-γ1; Concentration 119 µM (aqueous solution of test peptide provided for the test)): 83%
6 | 175 µg/mL (≈ 106 µM) | 88 µg/mL (≈ 53.4 µM) | 175 µg/mL (≈ 106 µM) | CSCC[C@H](NC(=O)[C@H](CCCCN)NC(=O)[C@H](CCCNC(=N)N)NC(=O)[C@H](Cc1ccc(O)cc1)NC(=O)[C@H](CC(C)C)NC(C)=O)C(=O)N[C@@H](CCCNC(=N)N)C(=O)N[C@@H](CC(C)C)C(=O)N[C@@H](CCCNC(=N)N)C(=O)N[C@@H](Cc1ccc(O)cc1)C(=O)N1CCC[C@H]1C(=O)N[C@H](C(=O)NCCCCCC(N)=O)C(C)C [Compound (I-3), CH3CO-Leu-Tyr-Arg-Lys-Met-Arg-Leu-Arg-Tyr-Pro-Val-NH-(CH2)5CONH2] (Ac-LYRKMRLRYPV[Ahx]-NH2) | – | Inhibition rate (%) (KMS-4 cells; Concentration 6 µM): 53%; inhibition at 121 µM (PLC-γ1; Concentration 121 µM (aqueous solution of test peptide provided for the test)): 77%
7 | 129 µg/mL (≈ 77.6 µM) | 129 µg/mL (≈ 77.6 µM) | 129 µg/mL (≈ 77.6 µM) | CSCC[C@H](NC(=O)[C@H](CCCCN)NC(=O)[C@H](CCCNC(=N)N)NC(=O)[C@H](Cc1ccc(O)cc1)NC(=O)[C@H](CC(C)C)NC(C)=O)C(=O)N[C@@H](CCCNC(=N)N)C(=O)N[C@@H](CC(C)C)C(=O)N[C@@H](CCCNC(=N)N)C(=O)N[C@@H](Cc1ccc(O)cc1)C(=O)N1CCC[C@H]1C(=O)N[C@H](C(=O)NCCCCCCC(N)=O)C(C)C [Compound (I-4), CH3CO-Leu-Tyr-Arg-Lys-Met-Arg-Leu-Arg-Tyr-Pro-Val-NH-(CH2)6CONH2] (Ac-LYRKMRLRYPV[Ahp]-NH2) | – | Inhibition rate (%) (KMS-4 cells; Concentration 25 µM): 47%; inhibition at 120 µM (PLC-γ1; Concentration 120 µM (aqueous solution of test peptide provided for the test)): 89%
